Results reported in patent publication EP0908457B1, “3-(1,2-benzisothiazol- and isoxazol-5-Y1)-2,4(1H,3H)-pyrimidinedione or thione and 3-(1,2-benzisothiazol- and isoxazol-5-y1)-4(3H)-pyrimidinone or thione herbicidal agents” (BASF AKTIENGESELLSCHAFT, priority 1997, dated 1999).

Tests used:
Assay type in all cases: in vivo
[1] = tested on: Echinochloa oryzoides (Ard.) Fritsch.; assay: Preemergence weed control under flooded paddy conditions, ECHORC (Watergrass (Calif.)); details: flooded paddy; as to herbicidal effect rating, ECHORC: meaning of each grade not given here
[2] = tested on: Cyperus serotinus, Rottb.; assay: Preemergence weed control under flooded paddy conditions, CYPSE (Flatsedge); as to herbicidal effect rating, CYPSE: meaning of each grade not given here
Sagittaria pygmaea, L. = assay: Preemergence weed control under flooded paddy conditions, SAGPY (Arrowhead (Pygmaea)); details: flooded paddy; as to herbicidal effect rating, SAGPY: meaning of each grade not given here
Cyperus iria = assay: Preemergence weed control under flooded paddy conditions, CYPIR (Rice Flatsedge); details: flooded paddy; as to herbicidal effect rating, CYPIR: meaning of each grade not given here
[3] = tested on: Monochoria vaginalis, Presl.; assay: Preemergence weed control under flooded paddy conditions, MOOVA (Monochoria); details: flooded paddy; as to herbicidal effect rating, MOOVA: meaning of each grade not given here
[4] = 0.0320 kg/ha, preemergence, rated three to four weeks after treatment
[5] = 0.0620 kg/ha, preemergence, rated three to four weeks after treatment
[6] = 0.1250 kg/ha, preemergence, rated three to four weeks after treatment
[7] = 0.2500 kg/ha, preemergence, rated three to four weeks after treatment
[8] = Rate 0.0320 kg/ha, preemergence, rated 3-4 weeks after treatment
[9] = Rate 0.0620 kg/ha, preemergence, rated 3-4 weeks after treatment
[10] = Rate 0.1250 kg/ha, preemergence, rated 3-4 weeks after treatment
[11] = Rate 0.2500 kg/ha, preemergence, rated 3-4 weeks after treatment
[12] = Rate 0.0320 kg/ha, preemergence, rated three to four weeks after treatment
[13] = Rate 0.0620 kg/ha, preemergence, rated three to four weeks after treatment
[14] = Rate 0.1250 kg/ha, preemergence, rated three to four weeks after treatment
[15] = Rate 0.2500 kg/ha, preemergence, rated three to four weeks after treatment
[16] = Rate 0.0320 kg/ha, preemergence weeds, rated three to four weeks after treatment
[17] = Rate 0.0620 kg/ha, preemergence weeds, rated three to four weeks after treatment
[18] = Rate 0.1250 kg/ha, preemergence weeds, rated three to four weeks after treatment
[19] = Rate 0.2500 kg/ha, preemergence weeds, rated three to four weeks after treatment
[20] = 0.0313 kg/ha, preemergence weeds, rated three to four weeks after treatment
[21] = 0.0625 kg/ha, preemergence weeds, rated three to four weeks after treatment
[22] = 0.1250 kg/ha, preemergence weeds, rated three to four weeks after treatment
[23] = 0.2500 kg/ha, preemergence weeds, rated three to four weeks after treatment

Cn1c(C(F)(F)F)cc(=O)n(-c2ccc3snc(COC(=O)c4ccno4)c3c2)c1=O [Example 475, 2,4(1H,3H)-Pyrimidinedione, 3-[3-(hydroxymethyl)-1,2-benzisothiazol-5-yl]-1-methyl-6-(trifluoromethyl)-, 5-isoxazolecarboxylate (ester)]
ECHORC herbicidal rating [1, 4]: 0.0
ECHORC herbicidal rating [1, 5]: 0.0
ECHORC herbicidal rating [1, 6]: 2.0
ECHORC herbicidal rating [1, 7]: 3.0
CYPSE herbicidal rating [2, 4]: 0.0
CYPSE herbicidal rating [2, 6]: 5.0
CYPSE herbicidal rating [2, 7]: 7.0
SAGPY herbicidal rating (Sagittaria pygmaea, L.; [4]): 0.0
SAGPY herbicidal rating (Sagittaria pygmaea, L.; [5]): 4.0
SAGPY herbicidal rating (Sagittaria pygmaea, L.; [6]): 6.0
SAGPY herbicidal rating (Sagittaria pygmaea, L.; [7]): 7.0
CYPIR herbicidal rating (Cyperus iria; [4]): 4.0
CYPIR herbicidal rating (Cyperus iria; [5]): 6.0
CYPIR herbicidal rating (Cyperus iria; [6]): 9.0
CYPIR herbicidal rating (Cyperus iria; [7]): 9.0
MOOVA herbicidal rating [3, 4]: 9.0
MOOVA herbicidal rating [3, 5]: 9.0
MOOVA herbicidal rating [3, 6]: 9.0
MOOVA herbicidal rating [3, 7]: 9.0

CCOC(=O)C1CCC(OC(=O)COc2ccc(C)cc2-c2nsc3ccc(-n4c(=O)cc(C(F)(F)F)n(C)c4=O)cc23)CC1 (single isomer, unassigned; isomer b) [Example 525, Acetic acid, {{2-{5-[3,6-dihydro-3-methyl-2,6-dioxo-4-(trifluoromethyl)-1(2H)-pyrimidinyl)-1,2-benzisothiazol-3-yl}-p-tolyl}oxy}-, ester with ethyl 4-hydroxycyclohexanecarboxylate, isomer B]
herbicidal effect rating, ECHORC [1, 8]: 6.0
herbicidal effect rating, ECHORC [1, 9]: 7.0
herbicidal effect rating, ECHORC [1, 10]: 9.0
herbicidal effect rating, ECHORC [1, 11]: 9.0
herbicidal effect rating, CYPSE [2, 8]: 0.0
herbicidal effect rating, CYPSE [2, 9]: 0.0
herbicidal effect rating, CYPSE [2, 10]: 0.0
herbicidal effect rating, CYPSE [2, 11]: 0.0
herbicidal effect rating, SAGPY (Sagittaria pygmaea, L.; [8]): 0.0
herbicidal effect rating, SAGPY (Sagittaria pygmaea, L.; [9]): 0.0
herbicidal effect rating, SAGPY (Sagittaria pygmaea, L.; [10]): 0.0
herbicidal effect rating, SAGPY (Sagittaria pygmaea, L.; [11]): 0.0
herbicidal effect rating, CYPIR (Cyperus iria; [8]): 0.0
herbicidal effect rating, CYPIR (Cyperus iria; [9]): 2.0
herbicidal effect rating, CYPIR (Cyperus iria; [10]): 2.0
herbicidal effect rating, CYPIR (Cyperus iria; [11]): 4.0
herbicidal effect rating, MOOVA [3, 8]: 9.0
herbicidal effect rating, MOOVA [3, 9]: 9.0
herbicidal effect rating, MOOVA [3, 10]: 9.0
herbicidal effect rating, MOOVA [3, 11]: 9.0

CCCCS(=O)(=O)OCc1nsc2ccc(-n3c(=O)cc(C(F)(F)F)n(C)c3=O)cc12 [Example 381, 2,4(1H,3H)-Pyrimidinedione, 3-[3-(hydroxymethyl)-1,2-benzisothiazol-5-yl]-1-methyl-6-(trifluoromethyl)-, butanesulfonate (ester)]
herbicidal effect rating, ECHORC [1, 12]: 0.0
herbicidal effect rating, ECHORC [1, 13]: 3.0
herbicidal effect rating, ECHORC [1, 14]: 4.0
herbicidal effect rating, ECHORC [1, 15]: 6.0
herbicidal effect rating, CYPSE [2, 12]: 0.0
herbicidal effect rating, CYPSE [2, 13]: 4.0
herbicidal effect rating, CYPSE [2, 14]: 7.0
herbicidal effect rating, CYPSE [2, 15]: 7.0
herbicidal effect rating, SAGPY (Sagittaria pygmaea, L.; [12]): 3.0
herbicidal effect rating, SAGPY (Sagittaria pygmaea, L.; [13]): 5.0
herbicidal effect rating, SAGPY (Sagittaria pygmaea, L.; [14]): 6.0
herbicidal effect rating, SAGPY (Sagittaria pygmaea, L.; [15]): 7.0
herbicidal effect rating, CYPIR (Cyperus iria; [12]): 6.0
herbicidal effect rating, CYPIR (Cyperus iria; [13]): 7.0
herbicidal effect rating, CYPIR (Cyperus iria; [14]): 8.0
herbicidal effect rating, CYPIR (Cyperus iria; [15]): 8.0
herbicidal effect rating, MOOVA [3, 12]: 6.0
herbicidal effect rating, MOOVA [3, 13]: 7.0
herbicidal effect rating, MOOVA [3, 14]: 8.0
herbicidal effect rating, MOOVA [3, 15]: 8.0

CC(OS(C)(=O)=O)c1nsc2ccc(-n3c(=O)cc(C(F)(F)F)n(C)c3=O)cc12 (stereo not shown) [Example 309, 2,4(1H,3H)-Pyrimidinedione, 3-[3-(1-hydroxyethyl)-1,2-benzisothiazol-5-yl]-1-methyl-6-(trifluoromethyl)-, methanesulfonate (ester)]
herbicidal effect rating, ECHORC [1, 16]: 1.0
herbicidal effect rating, ECHORC [1, 17]: 2.0
herbicidal effect rating, ECHORC [1, 18]: 4.0
herbicidal effect rating, ECHORC [1, 19]: 7.0
herbicidal effect rating, CYPSE [2, 16]: 0.0
herbicidal effect rating, CYPSE [2, 17]: 0.0
herbicidal effect rating, CYPSE [2, 18]: 0.0
herbicidal effect rating, CYPSE [2, 19]: 7.0
herbicidal effect rating, SAGPY (Sagittaria pygmaea, L.; [16]): 2.0
herbicidal effect rating, SAGPY (Sagittaria pygmaea, L.; [17]): 3.0
herbicidal effect rating, SAGPY (Sagittaria pygmaea, L.; [18]): 4.0
herbicidal effect rating, SAGPY (Sagittaria pygmaea, L.; [19]): 8.0
herbicidal effect rating, CYPIR (Cyperus iria; [16]): 9.0
herbicidal effect rating, CYPIR (Cyperus iria; [17]): 9.0
herbicidal effect rating, CYPIR (Cyperus iria; [18]): 9.0
herbicidal effect rating, CYPIR (Cyperus iria; [19]): 9.0
herbicidal effect rating, MOOVA [3, 16]: 6.0
herbicidal effect rating, MOOVA [3, 17]: 6.0
herbicidal effect rating, MOOVA [3, 18]: 9.0
herbicidal effect rating, MOOVA [3, 19]: 9.0

CC(C)S(=O)(=O)OCc1nsc2ccc(-n3c(=O)cc(C(F)(F)F)n(C)c3=O)cc12 [Example 371, 2,4(1H,3H)-Pyrimidinedione, 3-[3-(hydroxymethyl)-1,2-benzisothiazol-5-yl]-1-methyl-6-(trifluoromethyl)-, 1-methylethanesulfonate (ester)]
herbicidal effect rating, ECHORC [1, 12]: 3.0
herbicidal effect rating, ECHORC [1, 13]: 4.0
herbicidal effect rating, ECHORC [1, 14]: 6.0
herbicidal effect rating, ECHORC [1, 15]: 7.0
herbicidal effect rating, CYPSE [2, 12]: 0.0
herbicidal effect rating, CYPSE [2, 13]: 0.0
herbicidal effect rating, CYPSE [2, 14]: 6.0
herbicidal effect rating, CYPSE [2, 15]: 9.0
herbicidal effect rating, SAGPY (Sagittaria pygmaea, L.; [12]): 3.0
herbicidal effect rating, SAGPY (Sagittaria pygmaea, L.; [13]): 4.0
herbicidal effect rating, SAGPY (Sagittaria pygmaea, L.; [14]): 9.0
herbicidal effect rating, SAGPY (Sagittaria pygmaea, L.; [15]): 9.0
herbicidal effect rating, CYPIR (Cyperus iria; [12]): 4.0
herbicidal effect rating, CYPIR (Cyperus iria; [13]): 6.0
herbicidal effect rating, CYPIR (Cyperus iria; [14]): 9.0
herbicidal effect rating, CYPIR (Cyperus iria; [15]): 9.0
herbicidal effect rating, MOOVA [3, 12]: 9.0
herbicidal effect rating, MOOVA [3, 13]: 9.0
herbicidal effect rating, MOOVA [3, 14]: 9.0
herbicidal effect rating, MOOVA [3, 15]: 9.0

Cc1ccc(OCC(=O)OC(C)C(=O)O)c(-c2nsc3ccc(-n4c(=O)cc(C(F)(F)F)n(C)c4=O)cc23)c1 (racemic) [Example 190, 2-{{2-{5-[3,6-Dihydro-3-methyl-2,6-dioxo-4-(trifluoromethyl)-1(2H)-pyrimidinyl]-1,2-benzisothiazol-3-yl}-p-tolyl}oxy}acetoxy}-propionic acid, DL-]
herbicidal effect rating, ECHORC [1, 20]: 2.0
herbicidal effect rating, ECHORC [1, 21]: 4.0
herbicidal effect rating, ECHORC [1, 22]: 7.0
herbicidal effect rating, ECHORC [1, 23]: 8.0
herbicidal effect rating, CYPSE [2, 20]: 0.0
herbicidal effect rating, CYPSE [2, 21]: 0.0
herbicidal effect rating, CYPSE [2, 22]: 0.0
herbicidal effect rating, CYPSE [2, 23]: 0.0
herbicidal effect rating, SAGPY (Sagittaria pygmaea, L.; [20]): 0.0
herbicidal effect rating, SAGPY (Sagittaria pygmaea, L.; [21]): 0.0
herbicidal effect rating, SAGPY (Sagittaria pygmaea, L.; [22]): 0.0
herbicidal effect rating, SAGPY (Sagittaria pygmaea, L.; [23]): 0.0
herbicidal effect rating, CYPIR (Cyperus iria; [20]): 0.0
herbicidal effect rating, CYPIR (Cyperus iria; [21]): 0.0
herbicidal effect rating, CYPIR (Cyperus iria; [22]): 2.0
herbicidal effect rating, CYPIR (Cyperus iria; [23]): 4.0
herbicidal effect rating, MOOVA [3, 20]: 9.0
herbicidal effect rating, MOOVA [3, 21]: 9.0
herbicidal effect rating, MOOVA [3, 22]: 9.0
herbicidal effect rating, MOOVA [3, 23]: 9.0

CC/C=C/CCCCCCCCCCOC(=O)COc1ccc(C)cc1-c1nsc2ccc(-n3c(=O)cc(C(F)(F)F)n(C)c3=O)cc12 [Example 526, Acetic acid, {{2-{5-[3,6-dihydro-3-methyl-2,6-dioxo-4-(trifluoromethyl)-1(2H)-pyrimidinyl]-1,2-benzisothiazol-3-yl}-p-tolyl}oxy}-, 11-tetradecenyl ester, (E)-]
herbicidal effect rating, ECHORC [1, 8]: 2.0
herbicidal effect rating, ECHORC [1, 9]: 2.0
herbicidal effect rating, ECHORC [1, 10]: 4.0
herbicidal effect rating, ECHORC [1, 11]: 6.0
herbicidal effect rating, CYPSE [2, 8]: 0.0
herbicidal effect rating, CYPSE [2, 9]: 0.0
herbicidal effect rating, CYPSE [2, 10]: 0.0
herbicidal effect rating, CYPSE [2, 11]: 0.0
herbicidal effect rating, SAGPY (Sagittaria pygmaea, L.; [8]): 0.0
herbicidal effect rating, SAGPY (Sagittaria pygmaea, L.; [9]): 0.0
herbicidal effect rating, SAGPY (Sagittaria pygmaea, L.; [10]): 0.0
herbicidal effect rating, SAGPY (Sagittaria pygmaea, L.; [11]): 0.0
herbicidal effect rating, CYPIR (Cyperus iria; [8]): 2.0
herbicidal effect rating, CYPIR (Cyperus iria; [9]): 4.0
herbicidal effect rating, CYPIR (Cyperus iria; [10]): 7.0
herbicidal effect rating, CYPIR (Cyperus iria; [11]): 9.0
herbicidal effect rating, MOOVA [3, 8]: 8.0
herbicidal effect rating, MOOVA [3, 9]: 9.0
herbicidal effect rating, MOOVA [3, 10]: 9.0
herbicidal effect rating, MOOVA [3, 11]: 9.0
